Measurements as given in patent publication US20160045440A1, “FORMULATION OF AMORPHOUS CALCIUM L-5-METHYLTETRAHYDROFOLATE (L-5-MTHF-Ca)” (CHEMO RESEARCH, S.L., priority 2013, published 2016).
Each block holds one compound with its values, some of them ahead of it.

Key:
[1] = Stability of powder mixtures of amorphous calcium L-5-methylfolate with stabilizing agents (1:10) on storage; type: physicochemical; conditions: 5° C. for one month; ALC:stabilizing agent 1:10
Description: Powder mixtures of amorphous calcium L-5-methylfolate with each of the stabilizing agents disclosed in the following table were prepared. In all the cases, the mixture contained a weight amount of calcium L-5-methylfolate to stabilizing agent of 1:10.

[2] = Stability of amorphous calcium L-5-methylfolate and cysteine at weight ratios 1:0 to 1:33 on storage; type: physicochemical
[3] = storage time of one month at 40° C.; cited from earlier work

Assay (%) of Calcium L-5-methylfolate that remains in the mixture [1]: 91.02%
Related substances (%) D-Mefox [1]: 0.50%
Related substances (%) HO-MeTHFA [1]: 1.18%
Related substances (%) L-Mefox [1]: 4.27%
Related substances (%) TOTAL impurities [1]: 8.0%
Assay (%) ([2]; 5° C. for 1 month): 99.59%
Related substances (%) D-Mefox ([2]; 5° C. for 1 month): 0.42%
Related substances (%) HO-MeTHFA ([2]; 5° C. for 1 month): 1.80%
Related substances (%) L-Mefox ([2]; 5° C. for 1 month): 2.52%
Related substances (%) TOTAL impurities ([2]; 5° C. for 1 month): 5.59%
Assay (%) ([2]; 5° C. for 3 months): 96.39%
Related substances (%) D-Mefox ([2]; 5° C. for 3 months): 0.32%
Related substances (%) HO-MeTHFA ([2]; 5° C. for 3 months): 1.34%
Related substances (%) L-Mefox ([2]; 5° C. for 3 months): 2.74%
Related substances (%) TOTAL impurities ([2]; 5° C. for 3 months): 5.74%
Assay (%) ([2]; 25° C./60% HR for 1 month): 89.13%
Related substances (%) D-Mefox ([2]; 25° C./60% HR for 1 month): 0.71%
Related substances (%) HO-MeTHFA ([2]; 25° C./60% HR for 1 month): 1.75%
Related substances (%) L-Mefox ([2]; 25° C./60% HR for 1 month): 4.68%
Related substances (%) TOTAL impurities ([2]; 25° C./60% HR for 1 month): 9.19%
Assay (%) ([2]; 25° C./60% HR for 3 months): 84.03%
Related substances (%) D-Mefox ([2]; 25° C./60% HR for 3 months): 0.57%
Related substances (%) HO-MeTHFA ([2]; 25° C./60% HR for 3 months): 1.44%
Related substances (%) L-Mefox ([2]; 25° C./60% HR for 3 months): 6.49%
Related substances (%) TOTAL impurities ([2]; 25° C./60% HR for 3 months): 11.95%
Assay (%) ([2]; 40° C./75% HR for 1 month): 81.95%
Related substances (%) D-Mefox ([2]; 40° C./75% HR for 1 month): 0.93%
Related substances (%) HO-MeTHFA ([2]; 40° C./75% HR for 1 month): 1.84%
Related substances (%) L-Mefox ([2]; 40° C./75% HR for 1 month): 8.97%
Related substances (%) TOTAL impurities ([2]; 40° C./75% HR for 1 month): 15.57%
Compound: CN1c2c(nc(N)[nH]c2=O)NC[C@@H]1CNc1ccc(C(=O)N[C@@H](CCC(=O)[O-])C(=O)[O-])cc1.[Ca+2] [Amorphous Calcium L-5-methylfolate (ALC), N-{4-[[((6S)-2-amino-1,4,5,6,7,8-hexahydro-5-methyl-4-oxo-6-pteridinyl)methyl]amino]benzoyl}-L-glutamic acid, calcium salt]

Compound: CN1c2c(nc(N)[nH]c2=O)NC[C@@H]1CNc1ccc(C(=O)N[C@@H](CCC(=O)[O-])C(=O)[O-])cc1.[Ca+2] [Metafolin, Calcium L-5-methylfolate]
Metafolin that remains in the compositions obtained by granulation [3]: 60%
